Where two headings read alike, the source gives them in different places.
Target: T1, mutant B-RAF (Homo sapiens, UniProt P15056, V600E)
T1 construct: purchased Upstate (Charlottesville, Va.)
Experiment: RAF biochemical assay (MEK-1 phosphorylation, anti-phospho MEK1/2 detection)
Conditions: for inhibition at 10 µM: read-out: Mutant B-RAF % inhibition
Procedure, shortened: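 Detection is by ELISA: after a 30 min room-temperature reaction, plate-captured GST-MEK-1 is probed with anti-phospho MEK1/2, then an AP-tagged secondary antibody with fluorescent Attophos read-out.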

T1 sequence (P15056 whole entry V600E): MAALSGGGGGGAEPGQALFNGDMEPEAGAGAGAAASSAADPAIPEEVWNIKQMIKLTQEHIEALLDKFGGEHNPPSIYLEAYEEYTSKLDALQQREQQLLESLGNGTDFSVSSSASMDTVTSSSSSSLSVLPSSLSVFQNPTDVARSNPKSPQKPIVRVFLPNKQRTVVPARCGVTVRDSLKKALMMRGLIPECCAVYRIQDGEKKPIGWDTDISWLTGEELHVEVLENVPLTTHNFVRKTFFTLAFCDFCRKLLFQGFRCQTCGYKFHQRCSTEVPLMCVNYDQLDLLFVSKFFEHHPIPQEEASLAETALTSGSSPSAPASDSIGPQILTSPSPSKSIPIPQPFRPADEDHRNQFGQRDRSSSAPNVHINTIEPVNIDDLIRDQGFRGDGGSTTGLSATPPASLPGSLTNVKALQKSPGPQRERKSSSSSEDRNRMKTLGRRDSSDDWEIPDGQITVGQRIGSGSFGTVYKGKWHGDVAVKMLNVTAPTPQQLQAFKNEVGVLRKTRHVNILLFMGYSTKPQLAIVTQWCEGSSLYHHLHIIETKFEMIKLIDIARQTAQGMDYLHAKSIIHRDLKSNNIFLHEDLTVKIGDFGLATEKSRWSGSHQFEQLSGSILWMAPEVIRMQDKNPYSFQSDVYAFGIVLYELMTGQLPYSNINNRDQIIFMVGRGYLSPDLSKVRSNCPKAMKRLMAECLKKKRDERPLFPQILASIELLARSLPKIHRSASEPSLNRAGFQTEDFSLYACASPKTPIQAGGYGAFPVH

IC50 (read-out: Mutant B-RAF IC50) [nM]	Compound	other results
10	O=C(O)CCc1ccc(S(=O)(=O)N2CCC(Nc3nccc(-c4c(-c5cccc(O)c5)nc5sccn45)n3)CC2)cc1 [Example 273, 3-(4-{[4-({4-[6-(3-hydroxyphenyl)imidazo[2,1-b][1,3]thiazol-5-yl]pyrimidin-2-yl}amino)piperidin-1-yl]sulfonyl}phenyl)propanoic acid]	–
> 3000	Cc1ccc(-c2nc3scc(C)n3c2-c2ccnc(NC3CCN(C(=O)Nc4ccc(N(C)C)cc4)CC3)n2)cc1 [Example 252, N-[4-(dimethylamino)phenyl]-4-({4-[3-methyl-6-(4-methylphenyl)imidazo[2,1-b][1,3]thiazol-5-yl]pyrimidin-2-yl}amino)piperidine-1-carboxamide]	–
354	O=C(NC1CCCCO1)N1CCC(Nc2nccc(-c3c(-c4ccc(F)cc4)nc4occn34)n2)CC1 (stereo not shown) [Example 177, 4-({4-[6-(4-fluorophenyl)imidazo[2,1-b][1,3]oxazol-5-yl]pyrimidin-2-yl}amino)-N-(tetrahydro-2H-pyran-2-yl)piperidine-1-carboxamide]	–
428	CCNC(=O)N1CCC(Nc2nccc(-c3c(-c4ccc(F)cc4)nc4occn34)n2)CC1 [Example 156, N-ethyl-4-({4-[6-(4-fluorophenyl)imidazo[2,1-b][1,3]oxazol-5-yl]pyrimidin-2-yl}amino)piperidine-1-carboxamide]	–
420	CC(C)c1ccc(S(=O)(=O)N2CCC(Nc3nccc(-c4c(-c5ccc(F)cc5)nc5occn45)n3)CC2)cc1 [Example 201, 4-[6-(4-fluorophenyl)imidazo[2,1-b][1,3]oxazol-5-yl]-N-{1-[(4-isopropylphenyl)sulfonyl]piperidin-4-yl}pyrimidin-2-amine]	–
1230	O=C(Nc1ccc(F)c(F)c1)N1CCC(Nc2nccc(-c3c(-c4ccc(F)cc4)nc4occn34)n2)CC1 [Example 193, N-(3,4-difluorophenyl)-4-({4-[6-(4-fluorophenyl)imidazo[2,1-b][1,3]oxazol-5-yl]pyrimidin-2-yl}amino)piperidine-1-carboxamide]	–
2540	O=C(NC1CCCC1)N1CCC(Nc2nccc(-c3c(-c4cccc(O)c4)nc4sccn34)n2)CC1 [Example 356, N-cyclopentyl-4-({4-[6-(3-hydroxyphenyl)imidazo[2,1-b][1,3]thiazol-5-yl]pyrimidin-2-yl}amino)piperidine-1-carboxamide]	–
> 3000	CN(C)c1ccc(NC(=O)N2CCC(Nc3nccc(-c4c(-c5ccc(-c6ccccc6)cc5)nc5sccn45)n3)CC2)cc1 [Example 254, 4-{[4-(6-biphenyl-4-ylimidazo[2,1-b][1,3]thiazol-5-yl)pyri-midin-2-yl]amino)-N-[4-(di-methylamino)phenyl]piperidine-1-carboxamide]	–

The remaining lines, values behind:

Compound	IC50 (read-out: Mutant B-RAF IC50) [nM]	other results
O=C(c1ccncc1)N1CCC[C@@H](Nc2nccc(-c3c(-c4cccc(O)c4)nc4sccn34)n2)C1 [Example 117, 3-[5-(2-{[(3R)-1-isonicotinoylpiperidin-3-yl]amino}pyrimidin-4-yl)imidazo[2,1-b][1,3]thiazol-6-yl]phenol]	328	–
O=S(=O)(c1ccc(F)cc1)N1CCC[C@@H](Nc2nccc(-c3c(-c4ccc(F)c(F)c4)nc4sccn34)n2)C1 [Example 85, 4-[6-(3,4-difluorophenyl)imidazo[2,1-b][1,3]thiazol-5-yl]-N-{(3R)-1-[(4-fluorophenyl)sulfonyl]piperidin-3-yl}pyrimidin-2-amine]	58	–
COc1cccc(-c2nc3sccn3c2-c2ccnc(N[C@@H]3CCCN(C(=O)NC4CCCCC4)C3)n2)c1 [Example 328, (3R)-N-cyclohexyl-3-({4-[6-(3-methoxyphenyl)imidazo[2,1-b][1,3]thiazol-5-yl]pyrimidin-2-yl}amino)piperidine-1-carboxamide]	4000	–
C[C@@H](NC(=O)N1CCC[C@@H](Nc2nccc(-c3c(-c4ccc(F)cc4)nc4occn34)n2)C1)c1ccccc1 [Example 72, (3R)-3-({4-[6-(4-fluorophenyl)imidazo[2,1-b][1,3]oxazol-5-yl]pyrimidin-2-yl}amino)-N-[(1R)-1-phenylethyl]piperidine-1-carboxamide]	–	inhibition at 10 µM: 53%
CC(C)CC(=O)N1CCC[C@@H](Nc2nccc(-c3c(-c4ccc(F)cc4)nc4occn34)n2)C1 [Example 40, 4-[6-(4-fluorophenyl)imi-dazo[2,1-b][1,3]oxazol-5-yl]-N-[(3R)-1-(3-methylbuta-noyl)piperidin-3-yl]pyrimidin-2-amine]	–	IC50: 142 nM
Fc1ccc(-c2nc3sccn3c2-c2ccnc(N[C@@H]3CCCNC3)n2)cc1F [Example 78, 4-[6-(3,4-difluorophenyl)imidazo[2,1-b][1,3]thiazol-5-yl]-N-[(3R)-piperidin-3-yl]pyrimidin-2-amine]	1260	–
O=S(=O)(c1cccs1)N1CCC[C@@H](Nc2nccc(-c3c(-c4cccc(O)c4)nc4sccn34)n2)C1 [Example 371, 3-[5-(2-{[(3R)-1-(2-thienylsulfonyl)piperidin-3-yl]amino}pyrimidin-4-yl)imidazo[2,1-b][1,3]thiazol-6-yl]phenol]	3	–
O=S(=O)(c1cccc(C(F)(F)F)c1)N1CCC(Nc2nccc(-c3c(-c4ccc(F)cc4)nc4occn34)n2)CC1 [Example 202, 4-[6-(4-fluorophenyl)imidazo[2,1-b][1,3]oxazol-5-yl]-N-(1-{[3-(trifluoromethyl)phenyl]sulfonyl}piperidin-4-yl)pyrimidin-2-amine]	840	–
COc1cccc(-c2nc3sccn3c2-c2ccnc(N[C@@H]3CCCNC3)n2)c1 [Example 77, 4-[6-(3-methoxyphenyl)imidazo[2,1-b][1,3]thiazol-5-yl]-N-[(3R)-piperidin-3-yl]pyrimidin-2-amine]	1810	–
O=S(=O)(C1CC1)N1CCC(Nc2nccc(-c3c(-c4cccc(O)c4)nc4sccn34)n2)CC1 [Example 315, 3-[5-(2-{[1-(cyclopropylsulfonyl)piperidin-4-yl]amino}pyrimidin-4-yl)imidazo[2,1-b][1,3]thiazol-6-yl}phenol]	11	–
COc1cccc(-c2nc3occn3c2-c2ccnc(NC3CCN(S(=O)(=O)C4CC4)CC3)n2)c1 [Example 338, N-[1-(cyclopropylsulfonyl)piperidin-4-yl]-4-[6-(3-methoxyphenyl)imidazo[2,1-b][1,3]oxazol-5-yl]pyrimidin-2-amine]	6990	–
CC(C)CC(=O)N1CCC[C@@H](Nc2nccc(-c3c(-c4cccc(O)c4)nc4sccn34)n2)C1 [Example 116, 3-[5-(2-{[(3R)-1-(3-methylbutanoyl)piperidin-3-yl]amino}pyrimidin-4-yl)imidazo[2,1-b][1,3]thiazol-6-yl]phenol]	–	inhibition at 10 µM: 52%
COc1cccc(-c2nc3sccn3c2-c2ccnc(N[C@@H]3CCCN(C[C@@H]4COC(C)(C)O4)C3)n2)c1 [Example 146, N-((3R)-1-{[(4R)-2,2-dimethyl-1,3-dioxolan-4-yl]methyl}piper-idin-3-yl)-4-[6-(3-methoxy-phenyl)imidazo[2,1-b][1,3]thiazol-5-yl]pyrimidin-2-amine]	–	inhibition at 10 µM: 43%
CS(=O)(=O)N1CCC(Nc2nccc(-c3c(-c4cccc(O)c4)nc4sccn34)n2)CC1 [Example 332, 3-[5-(2-{[1-(methylsulfonyl)piperidin-4-yl]amino}pyrimidin-4-yl)imidazo[2,1-b][1,3]thiazol-6-yl}phenol]	10	–
O=S(=O)(c1ccc(O)cc1)N1CCC[C@@H](Nc2nccc(-c3c(-c4cccc(O)c4)nc4sccn34)n2)C1 [Example 150, 3-{5-[2-({(3R)-1-[(4-hydroxyphenyl)sulfonyl]piperidin-3-yl}amino)pyrimidin-4-yl]imidazo[2,1-b][1,3]thiazol-6-yl}phenol]	9	–
NC(=O)c1cccc(-c2nc3sccn3c2-c2ccnc(N[C@@H]3CCCN(S(=O)(=O)c4ccc(Cl)cc4)C3)n2)c1 [Example 350, 3-{5-[2-({(3R)-1-[(4-chlorophenyl)sulfonyl]piperidin-3-yl}amino)pyrimidin-4-yl]imidazo[2,1-b][1,3]thiazol-6-yl}benzamide]	140	–
O=[N+]([O-])c1ccc(-c2nc3sccn3c2-c2ccnc(NC3CCNCC3)n2)cc1 [Example 247, 4-[6-(4-nitrophenyl)imidazo[2,1-b][1,3]thiazol-5-yl]-N-piperidin-4-ylpyrimidin-2-amine]	–	inhibition at 2 µM (@ 2 uM): 9%
CC(=O)N1CCC(Nc2nccc(-c3c(-c4ccc(F)cc4F)nc4occn34)n2)CC1 [Example 310, N-(1-acetylpiperidin-4-yl)-4-[6-(2,4-difluorophenyl)imidazo[2,1-b][1,3]oxazol-5-yl]pyrimidin-2-amine]	–	inhibition at 10 µM: 33%
O=C(Nc1ccc(F)c(F)c1)N1CCC[C@@H](Nc2nccc(-c3c(-c4ccc(F)cc4)nc4occn34)n2)C1 [Example 73, (3R)-N-(3,4-difluorophenyl)-3-({4-[6-(4-fluorophenyl)imidazo[2,1-b][1,3]oxazol-5-yl]pyrimidin-2-yl}amino)piperidine-1-carboxamide]	–	inhibition at 10 µM: 37%
c1cc(-c2c(-c3ccc4c(c3)OCCO4)nc3sccn23)nc(N[C@@H]2CCCNC2)n1 [Example 99, 4-[6-(2,3-dihydro-1,4-benzodioxin-6-yl)imidazo[2,1-b][1,3]thiazol-5-yl]-N-[(3R)-piperidin-3-yl]pyrimidin-2-amine]	–	inhibition at 10 µM: 29%
Cc1ccccc1-c1nc2occn2c1-c1ccnc(NC2CCNCC2)n1 [Example 304, 4-[6-(2-methylphenyl)imidazo[2,1-b][1,3]oxazol-5-yl]-N-piperidin-4-ylpyrimidin-2-amine]	–	inhibition at 10 µM: 56%
COc1cccc(-c2nc3sccn3c2-c2ccnc(NC3CCN(S(C)(=O)=O)CC3)n2)c1 [Example 326, 4-[6-(3-methoxyphenyl)imidazo[2,1-b][1,3]thiazol-5-yl]-N-[1-(methylsulfonyl)piperidin-4-yl]pyrimidin-2-amine]	4000	–
O=S(=O)(c1ccc(F)c(Cl)c1)N1CCC[C@@H](Nc2nccc(-c3c(-c4ccc(F)cc4)nc4occn34)n2)C1 [Example 47, N-{(3R)-1-[(3-chloro-4-fluorophenyl)sulfonyl]piper-idin-3-yl}-4-[6-(4-fluorophenyl)imidazo[2,1-b][1,3]oxazol-5-yl]pyrimidin-2-amine]	963	–
